Reference: the NIST ThermoML archive (doi:10.1021/je200790q)

Assays:
[1] = 101.33 kPa, Liquid; for mass density: Vibrating tube method
[2] = refractive index (Na D-line) (dimensionless); details: 101.33 kPa, Liquid, Standard Abbe refractometry
[3] = molar heat capacity at constant pressure; details: 298.15 K; 101.33 kPa; Liquid; Drop calorimetry

CC(=O)[O-].CCn1cc[n+](C)c1 [1-ethyl-3-methylimidazolium acetate]
Details	mass density, [1] [kg/m3]	refractive index, [2]	viscosity, [1] [mPa·s]
278.15 K	1112.4	–	723.62
283.15 K	1108.9	–	451.35
288.15 K	1105.6	–	295.7
288.37 K	–	1.50371	–
293.15 K	1102.4	–	202.29
293.28 K	–	1.50233	–
298.15 K	1099.3	–	143.61
298.19 K	–	1.50091	–
303.1 K	–	1.49949	–
303.15 K	1096.2	–	105.3
308.01 K	–	1.49807	–
308.15 K	1093.6	–	79.32
312.91 K	–	1.49666	–
313.15 K	1090	–	61.33
318.15 K	1087	–	48.41
323.15 K	1084	–	38.95
328.15 K	1081	–	31.87
333.15 K	1078	–	26.47
338.15 K	1075	–	22.27
343.15 K	1072.1	–	18.96
348.15 K	1069.2	–	16.31
353.15 K	1066.3	–	14.16
358.15 K	1063.4	–	12.41
363.15 K	1060.6	–	10.95

Details	molar heat capacity at constant pressure [J/K/mol]
[3]	321.9

CCn1cc[n+](C)c1.CO[PH](=O)[O-] [1-ethyl-3-methylimidazolium methyl phosphonate]
Details	mass density, [1] [kg/m3]	refractive index, [2]	viscosity, [1] [mPa·s]
278.15 K	1222.2	–	916.06
283.15 K	1218.6	–	598.79
288.15 K	1215.1	–	406.82
288.37 K	–	1.49534	–
293.15 K	1211.7	–	285.8
293.28 K	–	1.4939	–
298.15 K	1208.3	–	206.76
298.19 K	–	1.49249	–
303.1 K	–	1.49115	–
303.15 K	1205	–	153.63
308.01 K	–	1.48982	–
308.15 K	1201.8	–	116.89
312.91 K	–	1.48854	–
313.15 K	1198.6	–	90.83
317.82 K	–	1.48714	–
318.15 K	1195.5	–	71.92
323.15 K	1192.3	–	57.94
328.15 K	1189.2	–	47.38
333.15 K	1186.1	–	39.29
338.15 K	1183	–	32.99
343.15 K	1179.9	–	28.02
348.15 K	1176.9	–	24.05
353.15 K	1173.9	–	20.83
358.15 K	1170.9	–	18.2
363.15 K	1167.9	–	16.03

Details	molar heat capacity at constant pressure [J/K/mol]
[3]	354.63

CCn1cc[n+](C)c1.N#CN=C=[N-] [1-ethyl-3-methylimidazolium dicyanamide]
Details	mass density, [1] [kg/m3]	refractive index, [2]	viscosity, [1] [mPa·s]
278.15 K	1117.9	–	32.51
283.15 K	1114.3	–	26.67
288.15 K	1110.9	–	22.23
288.37 K	–	1.51745	–
293.15 K	1107.4	–	18.79
293.28 K	–	1.51585	–
298.15 K	1104	–	16.09
298.19 K	–	1.51428	–
303.1 K	–	1.51269	–
303.15 K	1100.6	–	13.92
308.01 K	–	1.51112	–
308.15 K	1097.3	–	12.16
312.91 K	–	1.50956	–
313.15 K	1094	–	10.72
318.15 K	1090.7	–	9.519
323.15 K	1087.4	–	8.518
328.15 K	1084.2	–	7.673
333.15 K	1081	–	6.951
338.15 K	1077.8	–	6.327
343.15 K	1074.7	–	5.788
348.15 K	1071.6	–	5.319
353.15 K	1068.5	–	4.909
358.15 K	1065.4	–	4.548
363.15 K	1062.3	–	4.229

Details	molar heat capacity at constant pressure [J/K/mol]
[3]	314.63

CCn1cc[n+](C)c1.COP(=O)([O-])OC [1-ethyl-3-methylimidazolium dimethylphosphate]
Details	mass density, [1] [kg/m3]	refractive index, [2]	viscosity, [1] [mPa·s]
298.19 K	–	1.48175	–
303.1 K	–	1.4805	–
303.15 K	1213.9	–	192.68
308.01 K	–	1.47909	–
308.15 K	1210.5	–	144.32
312.91 K	–	1.47771	–
313.15 K	1207.1	–	110.51
317.82 K	–	1.47636	–
318.15 K	1203.8	–	86.32
322.73 K	–	1.47511	–
323.15 K	1200.5	–	68.64
327.64 K	–	1.47384	–
328.15 K	1197.2	–	55.46
333.15 K	1193.9	–	45.47
338.15 K	1190.6	–	37.78
343.15 K	1187.4	–	31.76
348.15 K	1184.2	–	26.99
353.15 K	1181	–	23.17
358.15 K	1177.8	–	20.07
363.15 K	1174.7	–	17.53

Details	molar heat capacity at constant pressure [J/K/mol]
[3]	411.78
